We go through 15 compounds from ChEMBL document CHEMBL5233274, “Current Landscape and Future Perspective of Oxazolidinone Scaffolds Containing Antibacterial Drugs” (J Med Chem, 2021).

Common to all, as to format: functional
Experiment [1] relates to Pseudomonas aeruginosa. Description: Antibacterial activity against Pseudomonas aeruginosa assessed as inhibition of bacterial growth incubated for 18 hrs by CLSI protocol based method.
The test system of experiment [2] is Escherichia coli. In words: Antibacterial activity against Escherichia coli assessed as inhibition of bacterial growth incubated for 18 hrs by CLSI protocol based method.
The subject of experiment [3] is Aspergillus niger. Description: Antifungal activity against Aspergillus niger NCIM 1317 assessed as inhibition of fungal growth incubated for 48 hrs by serial dilution method.
The test system of experiment [4] is Enterococcus faecalis. In words: Antibacterial activity against Streptococcus faecalis NCIM 2080 assessed as inhibition of bacterial growth incubated for 24 hrs by serial dilution method.
In experiment [5] the test system is Escherichia coli. Description: Antibacterial activity against Escherichia coli NCIM 2065 assessed as inhibition of bacterial growth incubated for 24 hrs by serial dilution method.
The subject of experiment [6] is Candida albicans. Description: Antifungal activity against Candida albicans NCIM 3628 assessed as inhibition of fungal growth incubated for 48 hrs by serial dilution method.
For experiment [7], the system named is Staphylococcus aureus. In words: Antibacterial activity against Staphylococcus aureus NCIM 5257 assessed as inhibition of bacterial growth incubated for 24 hrs by serial broth dilution method. (Dilution methods test growth across graded concentrations, often in twofold steps.)
Experiment [8] relates to Pseudomonas aeruginosa. In words: Antibacterial activity against Pseudomonas aeruginosa NCIM 5210 assessed as inhibition of bacterial growth incubated for 24 hrs by serial dilution method.
For experiment [9], the system named is Bacillus subtilis. In words: Antibacterial activity against Bacillus subtilis NCIM 2097 assessed as inhibition of bacterial growth incubated for 24 hrs by serial broth dilution method.
Experiment [10] has as its system Klebsiella pneumoniae. Description: Antibacterial activity against Klebsiella pneumoniae NCIM 5289 assessed as inhibition of bacterial growth incubated for 24 hrs by serial dilution method.
In experiment [11] the test system is Bacillus subtilis. Description: Antibacterial activity against Bacillus subtilis assessed as inhibition of bacterial growth measured per 100 uL incubated for 24 hrs by agar well diffusion method. For orientation: In agar diffusion tests the substance spreads into inoculated agar from a disc or well.
The test system of experiment [12] is Escherichia coli. In words: Antibacterial activity against Escherichia coli assessed as inhibition of bacterial growth measured per 100 uL incubated for 24 hrs by agar well diffusion method.
In experiment [13] the test system is Saccharomyces cerevisiae. Description: Antifungal activity against Saccharomyces cerevisiae assessed as inhibition of fungal growth incubated measured per 100 uL incubated for 24 hrs by agar well diffusion method.
For experiment [14], the system named is Candida albicans. Description: Antifungal activity against Candida albicans assessed as inhibition of fungal growth incubated measured per 100 uL incubated for 24 hrs by agar well diffusion method.
The subject of experiment [15] is Pseudomonas aeruginosa. Description: Antibacterial activity against Pseudomonas aeruginosa assessed as inhibition of bacterial growth measured per 100 uL incubated for 24 hrs by agar well diffusion method.
Experiment [16] concerns Staphylococcus aureus. In words: Antibacterial activity against Staphylococcus aureus assessed as inhibition of bacterial growth measured per 100 uL incubated for 24 hrs by agar well diffusion method.
Experiment [17] deals with Staphylococcus aureus. In words: Antibacterial activity against Staphylococcus aureus assessed as inhibition of bacterial growth by CLSI protocol based microdilution assay.
Experiment [18] has as its system Enterococcus faecalis. In words: Antibacterial activity against Enterococcus faecalis ATCC 29212 assessed as inhibition of bacterial growth by CLSI protocol based microdilution assay.
For experiment [19], the system named is Listeria monocytogenes. Description: Antibacterial activity against Listeria monocytogenes assessed as inhibition of bacterial growth by CLSI protocol based microdilution assay.
Experiment [20] has as its system Enterococcus faecalis. In words: Antibacterial activity against Enterococcus faecalis ATCC 51299 assessed as inhibition of bacterial growth by CLSI protocol based microdilution assay.
For experiment [21], the system named is Streptococcus sp. Description: Antibacterial activity against wild-type Streptococcus sp. by broth dilution assay.
Experiment [22] has as its system Streptococcus sp. In words: Antibacterial activity against linezolid-resistant Streptococcus sp. by broth dilution assay.
Experiment [23] relates to Streptococcus sp. Description: Antibacterial activity against wild-type beta-hemolytic Streptococcus sp. by broth dilution assay.
The subject of experiment [24] is Enterococcus. In words: Antibacterial activity against Enterococcus assessed as fold increase relative to linezolid.
The subject of experiment [25] is Staphylococcus aureus. Description: Antibacterial activity against methicillin-resistant Staphylococcus aureus WIS 441 infected in Galleria mellonella larvae incubated for 6 days. The settings on record: time 6 day.
Experiment [26] deals with Staphylococcus aureus. Description: Antibacterial activity against Staphylococcus aureus assessed as fold increase relative to linezolid.
Experiment [27] relates to Pseudomonas aeruginosa. Description: Antibacterial activity against Pseudomonas aeruginosa assessed as inhibition of bacterial growth by CLSI protocol based microdilution assay.
Experiment [28] relates to Bacillus subtilis. In words: Antimicrobial activity against Bacillus subtilis assessed as inhibition zone at 200 ug/ml incubated for 24 hrs by disk diffusion method. The settings on record: read-out: IZ.
The subject of experiment [29] is Escherichia coli. In words: Antimicrobial activity against Escherichia coli assessed as inhibition zone at 200 ug/ml incubated for 24 hrs by disk diffusion method. The settings on record: read-out: IZ.
Experiment [30] deals with Fusarium oxysporum. In words: Antimicrobial activity against Fusarium oxysporum assessed as inhibition zone at 200 ug/ml incubated for 24 hrs by disk diffusion method. The settings on record: read-out: IZ.
In experiment [31] the test system is Escherichia coli. Description: Antibacterial activity against Escherichia coli assessed as zone of inhibition at 100 ug/ml. The settings on record: read-out: IZ.

In brackets after ≈: the same amount, converted by molar mass. Bounds are passed on as bounds.

For the compound `O=C(NO)[C@@H]1CN(c2ccc(-c3ccccc3)cc2)C(=O)O1`, the MIC is above 10 µg/mL in experiment [1] and 50 µg/mL (≈ 168 µM) in [2].
As to `O=C(/C=C/c1cccc(F)c1)c1ccc(-c2ccc(N3C[C@H](CO)OC3=O)cc2)cc1`, the MIC in experiment [3] was determined as 12.5 µg/mL (≈ 29.9 µM); in experiment [4] it was 3.12 µg/mL (≈ 7.49 µM); in experiment [5], 3.12 µg/mL (≈ 7.49 µM); in [6], 12.5 µg/mL (≈ 29.9 µM); in experiment [7], 3.12 µg/mL (≈ 7.49 µM); in [8], 3.12 µg/mL (≈ 7.49 µM). The MIC in [9] and in experiment [10] was 3.12 µg/mL (≈ 7.49 µM) in each case.
Turning to `O=C(/C=C/c1ccc(F)cc1)c1ccc(-c2ccc(N3C[C@H](CO)OC3=O)cc2)cc1`, the MIC came out at 12.5 µg/mL (≈ 29.9 µM) in experiment [3]; 3.12 µg/mL (≈ 7.49 µM) in experiment [4]; 3.12 µg/mL (≈ 7.49 µM) in experiment [5]; 12.5 µg/mL (≈ 29.9 µM) in [6]; 3.12 µg/mL (≈ 7.49 µM) in [7]; 3.12 µg/mL (≈ 7.49 µM) in [8]. Moreover, the MIC in experiment [9] and in experiment [10] was 3.12 µg/mL (≈ 7.49 µM) throughout.
With `O=C1NC(Cc2ccc(Nc3nc(-c4ccc(Cl)cc4)cs3)cc2)CO1` (centres undefined), the MIC was found to be 6.25 µg in experiment [11]; 12.5 µg in experiment [12]; 12.5 µg in experiment [13]; 12.5 µg in experiment [14]; 12.5 µg in experiment [15]; 6.25 µg in experiment [16].
On to `O=C1N[C@@H](Cc2ccc(NC(=S)Nc3ccc(Br)cc3)cc2)CO1`, for which the MIC in experiment [17], in experiment [18], in experiment [19] and in [20] was 25 µg/mL (≈ 61.5 µM) each time.
In the case of `O=C(/C=C/c1ccccc1F)c1ccc(-c2ccc(N3C[C@H](CO)OC3=O)cc2)cc1`, the MIC in experiment [3] turned out to be 12.5 µg/mL (≈ 29.9 µM); in [4], 3.12 µg/mL (≈ 7.49 µM); in experiment [5], 3.12 µg/mL (≈ 7.49 µM); in experiment [6], 12.5 µg/mL (≈ 29.9 µM); in experiment [7], 3.12 µg/mL (≈ 7.49 µM); in experiment [8], 3.12 µg/mL (≈ 7.49 µM). The MIC in experiment [9] and in experiment [10] was 3.12 µg/mL (≈ 7.49 µM) each time.
In the case of `O=C1NC(Cc2ccc(Nc3nc(-c4cccc(Cl)c4)cs3)cc2)CO1` (centres undefined), the MIC in experiment [11], in [12], in experiment [13], in experiment [14], in experiment [15] and in experiment [16] was 12.5 µg throughout.
As to `CS(=O)(=O)CCOc1ccc(C#Cc2ccc(N3C[C@@H](C(=O)NO)OC3=O)cc2)cc1`, the results for the MIC in [1] and in experiment [2] were above 10 µg/mL and 50 µg/mL (≈ 112 µM), respectively.
What is called MIC90 is an inhibitory concentration at the 90% level, which refers to growth in some studies and to a panel of isolates in others. For `Cn1nnc(-c2ccc(-c3ccc(N4C[C@H](CO)OC4=O)cc3F)cn2)n1` [TEDIZOLID], the MIC90 in experiment [21] is 0.25 µg/mL (≈ 0.675 µM); in experiment [22] it was 8 µg/mL (≈ 21.6 µM); in experiment [23], 0.25 µg/mL (≈ 0.675 µM). Also, the “fold change (FC)” value in [24] and in experiment [26] was 4 each time. The MED in experiment [25] was 2 mg/L.
For `COc1ccc(NC(=S)Nc2ccc(C[C@H]3COC(=O)N3)cc2)cc1`, the MIC in [27] amounted to 50 µg/mL (≈ 140 µM).
With `O=C1NC2(CO1)O/C(=C\c1ccc([N+](=O)[O-])cc1)C(=O)N2CCCNc1ccnc2cc(Cl)ccc12` (centres undefined), the zone of inhibition at 200 µg/mL in experiment [28], in experiment [29] and in [30] was 14 mm throughout.
Turning to `OC(Cn1cncn1)(Cn1cncn1)c1ccc(F)cc1F` [FLUCONAZOLE], the zone of inhibition at 200 µg/mL in experiment [30] was found to be 23 mm.
Take `CS(=O)(=O)CCCOc1ccc(C#Cc2ccc(N3C[C@@H](C(=O)NO)OC3=O)cc2)cc1`: the results for the MIC in experiment [1] and in [2] were above 10 µg/mL and 6.25 µg/mL (≈ 13.6 µM), respectively.
Turning to `CCCN1C(=O)C(N2C(=O)OCC2Cc2ccc(/N=C/c3ccccc3)cc2)C1c1ccc(Cl)cc1Cl` (centres undefined), in experiment [31], the zone of inhibition at 100 µg/mL came to 24 mm.
Regarding `O=C1NC(Cc2ccc(Nc3nc(-c4ccc(-c5ccccc5)cc4)cs3)cc2)CO1` (centres undefined), the MIC was 6.25 µg in [11]; 12.5 µg in experiment [12]; 12.5 µg in experiment [13]; 12.5 µg in [14]; 12.5 µg in experiment [15]; 6.25 µg in experiment [16].
